{"source": "paper PMC11143257", "about": "“Atomistic mechanism of coupling between cytosolic sensor domain and selectivity filter in TREK K2P channels” (Nature Communications, 2024)", "key": {"hTREK-1": {"tested_on": "hTREK-1", "test": "Direct application of PKC inhibitor, HEK293 whole-cell", "assay_type": "cell-based, human", "conditions": "1.0 µM; HEK293 cells, whole-cell configuration; within 30 min; n = 6", "procedure": "Further, we also tested the direct application of 1.0 µM of the PKC inhibitor BIM I to HEK293 cells (in whole-cell configuration) expressing hTREK-1. Similarly, under these conditions, TREK-1 channel currents were not altered within 30 min. (n = 6). Thus, it appears that under […]\nof the PKC site. Unfortunately, it is not known which phosphatase mediates the dephosphorylation of the PKC site in TREK channels nor are pharmacological phosphatase activators known that could be used promote the dephosphorylation.\nThe interaction network analysis provides possible explanations for how TM4 movement is transduced to SF gate opening. As mentioned, this analysis highlights a number of residues […]\nW326, R237 in Dong et al., 2015). The authors are well placed to determine whether mutation of these residues, in silico, destabilizes the down-state and to show how this might promote stabilization of the conductive SF. […]\nthrough interaction network analysis and previous mutation studies, can aid in studying the conformational change from down- to up-state in the channel and how this is related to the conformational change in the SF. However, the timescale for the conformational movement in […]\n2 channels. In only 3 out of 7 simulations, each lasting 3 μs, did we observe a complete transition from up to down. […]\nwell-suited for assessing the impact of mutations. […]"}, "WT hTREK-2": {"tested_on": "WT hTREK-2", "test": "Direct application of PKC inhibitor, oocytes", "assay_type": "cell-based, human", "conditions": "oocytes expressing WT hTREK-2", "description": "This study by Türkaydin and colleagues combines functional studies of TREK channels with MD simulations and proposes an explanation for the molecular mechanism of phosphorylation-mediated regulation of channel activity, and a general framework for how down-to-up transitions of TM4 is coupled to activation of the SF gate. Using elegant MTS-modification, phospho-mimetic mutagenesis, and norfluoxetine sensitivity experiment - and […]\nTM4 increases channel opening which is a plausible explanation for the inverse inhibitory effect of phosphorylation of the extended M4 helix.\nThe molecular dynamics approaches are mostly outside of my expertise and so I cannot comment on the technical elements. However, the interaction network analysis supports previous models that upwards movement of TM4 is associated with opening of the SF gate and highlights previously identified and potential novel residues responsible. […]\nresults provide interesting advances which improve our understanding of TREK channel […]\nWe thank the reviewer for the positive evaluation of our work and the many helpful comments to improve the manuscript. The reviewer specific comments are addressed below:\n- and this is an excellent opportunity to clarify some important outstanding questions in the […]\nstate. This is an interesting and important finding, which would help to explain TREK channel regulation in vivo. […]"}, "TREK-1 F325C": {"target": "T1, TREK-1 F325C (Homo sapiens, UniProt O95069, F325C)", "T1 construct": "expressed in transfected cells; host or cells: Xenopus laevis oocytes (cRNA injection), excised inside-out patches", "T1 sequence (O95069 1-426 F325C)": "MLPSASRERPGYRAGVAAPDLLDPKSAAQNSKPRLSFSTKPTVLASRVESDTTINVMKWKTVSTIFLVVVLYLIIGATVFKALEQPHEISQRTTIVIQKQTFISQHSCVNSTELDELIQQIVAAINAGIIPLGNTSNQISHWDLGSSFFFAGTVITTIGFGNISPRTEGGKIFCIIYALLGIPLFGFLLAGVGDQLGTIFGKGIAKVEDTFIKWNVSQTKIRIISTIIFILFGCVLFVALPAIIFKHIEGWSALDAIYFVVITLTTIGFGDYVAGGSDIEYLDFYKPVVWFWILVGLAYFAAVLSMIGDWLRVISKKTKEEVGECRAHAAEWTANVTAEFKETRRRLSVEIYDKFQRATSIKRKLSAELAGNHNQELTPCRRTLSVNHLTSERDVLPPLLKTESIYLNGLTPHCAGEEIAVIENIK", "test": "MTS probe modification, inside-out patch-clamp", "assay_type": "cell-based", "conditions": "MTS-ET+ 1 mM, symmetrical K+, -80 mV (Supplementary Fig. 2d)", "procedure": "(§1) First, we measured WT TREK-1, WT TRAAK and TREK-2^* channels without modifiable cysteine residues as references. […] Note, that patch integrity and channel regulation were tested with either 1 mM tetra-pentyl-ammonium (TPenA) and a short pHi activation step. Next, we conducted systematic cysteine scanning mutagenesis of the entire pCt and examined the effect of charged and aliphatic MTS probes.\n(§2) Xenopus laevis oocytes were surgically removed from anesthetized adult females, treated with type II collagenase (Sigma-Aldrich/Merck, Germany) and manually defolliculated. A solution containing the K^+ channel-specific cRNA at a desired concentration was injected into Dumont stage V - VI oocytes and subsequently incubated at 17 °C in a solution containing (mM): 54 NaCl, […], 2.4 NaHCO3, 0.82 MgSO4 x 7 H2O, 0.41 CaCl2, 0.33 Ca(NO3)2 x 4 H2O and 7.5 TRIS (pH 7.4 adjusted with NaOH/HCl) for 1 - 7 days before use. Patch-clamp recordings in an inside-out configuration under voltage-clamp conditions were performed at room temperature (22 - 24 °C). Patch pipettes were made from thick-walled borosilicate glass GB 200TF-8P (Science Products, Germany), had resistances of 0.2 - 0.5 MΩ (tip diameter of 10 - 25 µm) and filled with a pipette solution (in mM): 120 KCl, 10 HEPES and 3.6 CaCl2 (pH 7.4 adjusted with KOH/HCl). Intracellular bath solutions and compounds were applied to the cytoplasmic side of excised patches for the various K^+ channels via a gravity flow multi-barrel pipette system. The intracellular solution had the following composition (in mM): 120 KCl, 10 HEPES, 2 EGTA, and 1 Pyrophosphate (pH adjusted with KOH/HCl). Currents were recorded with an EPC10 amplifier (HEKA electronics, Germany) and sampled at 10 kHz or higher and filtered with 3 kHz (-3 dB) or higher as appropriate for the sampling rate.\n(§3) Tetra-pentyl-ammonium chloride (TPenA) was purchased from Merck (Sigma-Aldrich), prepared as 100 mM stocks in intracellular recording solution, stored at −20 °C and diluted to a final concentration in intracellular recording solution before measurements. Decyl-MethaneThioSulfonate (Decyl-MTS), (2-(trimethylammonium)ethyl)MethaneThioSulfonate bromide (MTS-ET^+) and Sodium (2-sulfonatoethyl)MethaneThioSulfonate (MTS-ES^-) were purchased from Toronto Research Chemicals. MTS-ET^+ was directly dissolved to the desired concentration of 1 mM in the intracellular recording solution before each experiment. MTS-ET^+ was used immediately after dilution for maximally 5 min. Decyl-MTS and […] were prepared as 10 - 100 mM stocks in DMSO and diluted to the desired concentration before the measurements.\n(§4) The fold current increase (fold activation) of a ligand (decyl-MTS) was calculated from the following equation:1 FoldactivationFA=Iactivated/Ibasal with Iactivated represents the stable current level in the presence of 100 µM decyl-MTS and Ibasal the measured current before application of the MTS probe."}, "TREK-1 V322C": {"target": "T2, TREK-1 V322C (Homo sapiens, UniProt O95069, V322C)", "T2 construct": "expressed in transfected cells; host or cells: Xenopus laevis oocytes (cRNA injection), excised inside-out patches", "T2 sequence (O95069 1-426 V322C)": "T1 sequence (O95069 1-426 F325C) with V322C, C325F", "test": "MTS probe modification, inside-out patch-clamp", "assay_type": "cell-based", "conditions": "MTS-ET+ 1 mM, symmetrical K+, -80 mV (Supplementary Fig. 2d)", "procedure": "as §1, §2, §3, §4"}, "TREK-1 T318C": {"target": "T3, TREK-1 T318C (Homo sapiens, UniProt O95069, T318C)", "T3 construct": "expressed in transfected cells; host or cells: Xenopus laevis oocytes (cRNA injection), excised inside-out patches", "T3 sequence (O95069 1-426 T318C)": "T1 sequence (O95069 1-426 F325C) with T318C, C325F", "test": "MTS probe modification, inside-out patch-clamp", "assay_type": "cell-based", "conditions": "MTS-ET+ 1 mM, symmetrical K+, -80 mV (Supplementary Fig. 2d)", "procedure": "as §1, §2, §3, §4"}, "TREK-2*": {"target": "T4, TREK-2* (Homo sapiens, UniProt P57789)", "T4 sequence (P57789 67-355 isoform P57789-4)": "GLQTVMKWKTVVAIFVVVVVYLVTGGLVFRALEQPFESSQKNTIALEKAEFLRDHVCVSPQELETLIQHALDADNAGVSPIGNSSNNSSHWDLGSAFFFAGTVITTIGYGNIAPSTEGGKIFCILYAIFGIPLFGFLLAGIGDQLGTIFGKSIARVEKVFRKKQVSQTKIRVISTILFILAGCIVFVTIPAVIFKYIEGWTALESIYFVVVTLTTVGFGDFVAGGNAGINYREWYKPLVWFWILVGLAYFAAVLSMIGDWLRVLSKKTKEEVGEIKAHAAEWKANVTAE", "test": "Activation of truncated construct", "assay_type": "cell-based", "parameters": "was truncated from WT and includes amino acids 67 - 355; expressed in transfected cells; host or cells: Xenopus laevis oocytes (cRNA injection, pFAW vector)", "conditions": "comparable to WT, peer review file", "description": "page 27: Answer: We agree with the reviewer that applying statistical tests to our simulation data would enhance the confidence in interpreting some of the results. However, in this study, due to the relatively large size of the systems that require extensive simulation time, we were limited to conducting only five to seven independent simulation runs for each setup. According to the checklist and recommendations provided by Nature Journal (PMID: 36918708), a minimum of three simulations per condition is advisable. Given that we only have data from these limited simulation runs, conducting a p-test is challenging. Nonetheless, as we noted in the main text, in all 5 simulations of the down-state, we observed a robust conformational change at the S1 binding site. Conversely, in all five up-state simulations, the SF remained a conductive conformation. […] Minor comments: Are there any differences in function between full-length TREK-2 and the TREK-2* construct? […] 22"}}, "note": "Where a chain is given by its changes, count along the chain named."}
{"molecule": "CN(C)CCCn1cc(C2=C(c3c[nH]c4ccccc34)C(=O)NC2=O)c2ccccc21", "note": "[BIM I, Bisindolylmaleimide I]", "values": [{"measurement": "effect on TREK-1 channel currents", "setting": "hTREK-1", "result": "not altered"}, {"measurement": "effect on current", "setting": "WT hTREK-2", "result": "did not observe a current increase"}]}
{"molecule": "(2-(trimethylammonium)ethyl)MethaneThioSulfonate bromide [MTS-ET^+]", "values": [{"measurement": "effect of charged MTS probe on activity", "setting": "TREK-1 F325C", "result": "channel inhibition"}, {"measurement": "effect of charged MTS probe on activity", "setting": "TREK-1 V322C", "result": "channel inhibition"}, {"measurement": "effect of charged MTS probe on activity", "setting": "TREK-1 T318C", "result": "channel inhibition"}]}
{"molecule": "CCCCC/C=C\\C/C=C\\C/C=C\\C/C=C\\CCCC(=O)O", "note": "[arachidonic acid]", "values": [{"measurement": "activation", "setting": "TREK-2*", "result": "activated"}]}
